The target of data set [1] is T1, Ribosyldihydronicotinamide dehydrogenase [quinone] (Homo sapiens, UniProt P16083).
T1 sequence (P16083 whole entry): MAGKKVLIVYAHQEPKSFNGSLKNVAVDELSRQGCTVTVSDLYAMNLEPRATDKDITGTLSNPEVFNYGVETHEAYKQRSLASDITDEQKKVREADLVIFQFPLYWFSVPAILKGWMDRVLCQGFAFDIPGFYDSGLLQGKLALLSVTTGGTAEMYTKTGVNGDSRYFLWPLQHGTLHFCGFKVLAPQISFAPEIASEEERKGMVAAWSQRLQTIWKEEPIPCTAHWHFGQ
Description: Inhibition of human recombinant NQO2 using DCPIPas substrate and NRH as cofactor measured for 1 min by spectrophotometry in the absence of BSA.

For data set [2], the system named is MDA-MB-468. Description: Cytotoxicity against human MDA-MB-468 cells after 96 hrs by MTT assay. Conditions: MDA-MB-468, 96 h. It counts as functional, cell-based.
Data set [3] deals with MCF7. Description: Cytotoxicity against human MCF7 cells after 96 hrs by MTT assay. It counts as functional, cell-based. Conditions: MCF7, 96 h.
Data set [4] concerns MDA-MB-231. Briefly: Cytotoxicity against human MDA-MB-231 cells after 96 hrs by MTT assay. Format: functional, cell-based. The conditions noted are these: MDA-MB-231, 96 h. (In general: Tetrazolium dyes change colour on reduction, which living cells bring about.)
The target in data set [5] is T1, Ribosyldihydronicotinamide dehydrogenase [quinone]. Briefly: Inhibition of human recombinant NQO2 using DCPIPas substrate and NRH as cofactor measured for 1 min by spectrophotometry in the prsence of BSA.
The subject of data set [6] is T47D. Briefly: Cytotoxicity against human T47D cells after 96 hrs by MTT assay. It counts as functional, cell-based.
The test system of another data set is Calf thymus DNA. Conditions: Bos taurus.
Data set [7] concerns the target T1, Ribosyldihydronicotinamide dehydrogenase [quinone]. Briefly: Inhibition of human recombinant NQO2 using DCPIP as substrate and NRH as cofactor in absence of BSA.
The next data set concerns Plasmodium falciparum. Briefly: Antimalarial activity against Plasmodium falciparum 3D7 infected in erythrocyte assessed as growth inhibition after 4 days by flow cytometry. The conditions noted are these: 3D7, 96 h. Format: functional, organism-based. Background: A flow cytometer gives signals particle by particle.
Data set [8] is described as follows: Drug uptake in Plasmodium falciparum 3D7 nucleus. Format: ADME.
The target of data set [9] is NAD(P)H dehydrogenase [quinone] 1 (Homo sapiens) (UniProt P15559). Description: Inhibition of human recombinant NQO1 using NADH as substrate at 10 uM measured for 1 min by spectrophotometry in presence of BSA.
Sequence of NAD(P)H dehydrogenase [quinone] 1 (Homo sapiens) (P15559 whole entry): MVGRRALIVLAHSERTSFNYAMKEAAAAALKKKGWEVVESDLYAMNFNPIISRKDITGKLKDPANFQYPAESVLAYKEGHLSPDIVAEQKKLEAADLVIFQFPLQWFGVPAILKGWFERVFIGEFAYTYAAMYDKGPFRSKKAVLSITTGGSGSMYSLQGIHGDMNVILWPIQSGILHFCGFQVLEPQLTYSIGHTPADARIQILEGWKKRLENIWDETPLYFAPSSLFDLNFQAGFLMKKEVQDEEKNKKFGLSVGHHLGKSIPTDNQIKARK
Data set [10] has as its system MCF7. Briefly: Cytotoxicity against human MCF7 cells at 10 uM after 96 hrs by MTT assay. It counts as functional, cell-based.
In data set [11] the test system is MDA-MB-468. Description: Cytotoxicity against human MDA-MB-468 cells at 10 uM after 96 hrs by MTT assay. It counts as functional, cell-based.
In data set [12] the test system is T47D. Briefly: Cytotoxicity against human T47D cells at 10 uM after 96 hrs by MTT assay. Format: functional, cell-based.
Data set [13] deals with MDA-MB-231. Briefly: Cytotoxicity against human MDA-MB-231 cells at 10 uM after 96 hrs by MTT assay. Format: functional, cell-based.
Data set [14] has as its target NAD(P)H dehydrogenase [quinone] 1 (Homo sapiens) (UniProt P15559). Briefly: Inhibition of human recombinant NQO1 using NADH as substrate at 10 uM measured for 1 min by spectrophotometry in absence of BSA.

Activity calls are given as the source filed them. The calls are words filed in the database; no cut-off is given here.

Description for Calf thymus DNA: Binding affinity to calf thymus DNA assessed as change in melting temperature by UV-visible spectrophometry

As usually defined, the IC50 is the concentration needed to halve the response being measured. As usually defined, the ΔTm is the change in melting temperature against a reference sample. As for `N=C(N)c1ccc(-c2ccc(-c3ccc(Br)cc3)o2)cc1`, the IC50 turned out to be 27 nM in data set [1]; 2500 nM with MDA-MB-468 [2]; 2600 nM with MCF7 [3]; 2700 nM with MDA-MB-231 [4]; 185 nM in [5]; 2400 nM in the data set with T47D [6]. For the same compound, in the data set on Calf thymus DNA, the ΔTm is 4.4 °C.
Turning to `Cc1c(-c2ccc(C(=N)N)cc2)oc(-c2ccc(C(=N)N)cc2)c1C`, the IC50 in data set [7] worked out at 50 nM.
For the compound `CC(=O)O.COc1ccc(-c2ccc(-c3ccc(C(=N)N)cc3)o2)cc1`, the IC50 amounted to 139 nM in the data set with Plasmodium falciparum; 107 nM in [1]; 2200 nM in the data set with MDA-MB-468 [2]; 2800 nM in the data set with MCF7 [3]; 2500 nM in the data set with MDA-MB-231 [4]; 141 nM in data set [5]. In the data set on T47D [6], this compound yielded an IC50 of 3000 nM. Also, the Drug uptake entry in [8] is recorded as “Not Active”. In addition, the ΔTm with Calf thymus DNA came to 2 °C.
For `CC(C)(C)c1ccc(-c2ccc(-c3ccc(C(=N)N)cc3)o2)cc1`, the IC50 in [1] worked out at 510 nM; with MDA-MB-468 [2] it was 3800 nM; in the data set with MCF7 [3], 3700 nM; in the data set on MDA-MB-231 [4], 3200 nM; in data set [5], 712 nM; with T47D [6], 3600 nM.
Regarding `CC(=O)O.CC(=O)O.N=C(N)c1ccc(-c2ccc(-c3ccc(C(=N)N)cc3)o2)cc1`, the IC50 came to 35 nM in data set [1]; 14000 nM with MDA-MB-468 [2]; 630 nM in data set [7]; 13600 nM in the data set with MCF7 [3]; 12500 nM in the data set on MDA-MB-231 [4]; 72 nM in [5]. This compound also yielded a half-maximal inhibitory concentration (IC50) with T47D [6] of 12800 nM. Further, in [8], the Drug uptake result is given as “Active”. In the data set with Calf thymus DNA, the ΔTm was 20 °C.
With `COc1cccc2c1C(=O)c1c(O)c3c(c(O)c1C2=O)C[C@@](O)(C(=O)CO)C[C@@H]3O[C@H]1C[C@H](N)[C@H](O)[C@H](C)O1`, the ΔTm in the data set with Calf thymus DNA turned out to be 20.5 °C.
With `N=C(N)c1ccc(-c2ccc(-c3ccccc3)o2)cc1`, the 50% inhibitory concentration (IC50) in data set [1] worked out at 68 nM; in the data set on MDA-MB-468 [2], 2700 nM; in data set [7] it was 140 nM; in the data set with MCF7 [3], 2400 nM; in the data set with MDA-MB-231 [4], 2000 nM; in [5] it was 139 nM. In addition, the IC50 in the data set with T47D [6] is 2800 nM. Further, the thermal shift (ΔTm) with Calf thymus DNA was 1.9 °C.
Turning to `N=C(N)c1ccc(-c2ccc(-c3cccc([N+](=O)[O-])c3)o2)cc1`, the IC50 in data set [1] was found to be 14.5 nM; in the data set with MDA-MB-468 [2], 3300 nM; with MCF7 [3], 3000 nM; in the data set with MDA-MB-231 [4], 2900 nM; in data set [5], 28 nM; with T47D [6], 3300 nM.
As for `CC(=O)O.Cc1ccc(-c2ccc(-c3ccc(C(=N)N)cc3)o2)cc1`, the IC50 in the data set with Plasmodium falciparum amounted to 57.5 nM; in data set [1], 72 nM; in the data set with MDA-MB-468 [2], 3700 nM; with MCF7 [3] it was 4800 nM; with MDA-MB-231 [4], 3400 nM; in data set [5], 110 nM. This compound gave an IC50 in the data set on T47D [6] of 3100 nM. Also, in data set [8], the Drug uptake result is “Not Active”. For the same compound, the ΔTm with Calf thymus DNA was determined as 2.8 °C.
For `N=C(N)c1ccc(-c2ccc(-c3ccc([N+](=O)[O-])cc3)o2)cc1`, the IC50 in data set [1] is 15.2 nM; in the data set on MDA-MB-468 [2] it was 3400 nM; in the data set on MCF7 [3], 3200 nM; in the data set with MDA-MB-231 [4], 3100 nM; in data set [5], 24 nM; in the data set on T47D [6], 3800 nM.
For the compound `N=C(N)c1ccc(-c2ccc(-c3ccccc3)[nH]2)cc1`, the IC50 in data set [1] came to 332 nM; with MDA-MB-468 [2], 3600 nM; with MCF7 [3], 3200 nM; in the data set with MDA-MB-231 [4] it was 3800 nM; in data set [5], 832 nM; in the data set on T47D [6] it was 3400 nM.
Take `CCc1ccc(-c2ccc(-c3ccc(C(=N)N)cc3)o2)cc1`: the IC50 in [1] is 202 nM; with MDA-MB-468 [2] it was 3300 nM; in the data set with MCF7 [3], 3200 nM; with MDA-MB-231 [4], 3400 nM; in [5], 312 nM; in the data set with T47D [6], 3000 nM.
`N=C(N)c1cccc(-c2ccc(-c3ccccc3)o2)c1`: the inhibition result in data set [9] and in [14] was “inactive” each time. Besides, the outcome in the data set on MCF7 [10], with MDA-MB-468 [11], with T47D [12] and in the data set on MDA-MB-231 [13] was inactive.
For `N=C(N)c1ccc(-c2ccc(-c3cccc(F)c3)o2)cc1`, the IC50 came to 98 nM in data set [1]; 2400 nM in the data set with MDA-MB-468 [2]; 2600 nM in the data set on MCF7 [3]; 2000 nM with MDA-MB-231 [4]; 111 nM in data set [5]; 2800 nM with T47D [6]. Also, in the data set on Calf thymus DNA, the ΔTm is 3.2 °C.
Regarding `Cn1c(-c2ccccc2)ccc1-c1ccc(C(=N)N)cc1`, the IC50 amounted to 410 nM in [1]; 3800 nM in the data set with MDA-MB-468 [2]; 2700 nM with MCF7 [3]; 2600 nM in the data set with MDA-MB-231 [4]; 943 nM in data set [5]; 2100 nM in the data set on T47D [6]. In addition, in the data set on Calf thymus DNA, the ΔTm was determined as 0.9 °C.
As to `CC(=O)O.N=C(N)c1ccc(-c2ccc(-c3ccc(F)cc3)o2)cc1`, the IC50 in the data set on Plasmodium falciparum came to 9.6 nM; in [1] it was 505 nM; with MDA-MB-468 [2], 3800 nM; with MCF7 [3], 3700 nM; in the data set with MDA-MB-231 [4], 3200 nM; in data set [5], 836 nM. In the data set with T47D [6], this compound gave an IC50 of 3600 nM. The Drug uptake entry in [8] is given as “Not Active”. For the same compound, in the data set with Calf thymus DNA, the ΔTm was 3.2 °C.
Consider `Oc1ccc(/C=C/c2cc(O)cc(O)c2)cc1` [RESVERATROL], for which the IC50 in the data set on MDA-MB-468 [2] is 58000 nM; with MCF7 [3], 62000 nM; in the data set with MDA-MB-231 [4], 57000 nM; in the data set on T47D [6] it was 59000 nM.

These data come from ChEMBL document CHEMBL3769335, “Non-symmetrical furan-amidines as novel leads for the treatment of cancer and malaria” (Eur J Med Chem, 2016).
